In this experiment the test system is B6C3F1 mice, ip Sarcoma M5076, median survival T/C. Put plainly: NCI In Vivo Anticancer Drug Screen. Data for tumor model Sarcoma M5076 (intraperitoneal) in B6C3F1 mice. The following applies: endpoint: median survival time, higher = longer survival. The gist of the method:
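Antitumour effect is judged in tumour-bearing mice by comparing survival after compound dosing against vehicle-only animals, reported as T/C.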

Where [1] appears, read: dose: 25.0 mg/kg/injection, schedule: Q04DX004 (ip), vehicle: Klucel (hydroxypropylcellulose) (HPC).
[2] abbreviates: dose: 50.0 mg/kg/injection, schedule: Q04DX004 (ip), vehicle: Klucel (hydroxypropylcellulose) (HPC).
Setting [3] is: dose: 100.0 mg/kg/injection, schedule: Q04DX004 (ip), vehicle: Klucel (hydroxypropylcellulose) (HPC).
[4] abbreviates: dose: 200.0 mg/kg/injection, schedule: Q04DX004 (ip), vehicle: Klucel (hydroxypropylcellulose) (HPC).
[5] abbreviates: dose: 400.0 mg/kg/injection, schedule: Q04DX004 (ip), vehicle: Klucel (hydroxypropylcellulose) (HPC).
Where [6] appears, read: dose: 50.0 mg/kg/injection, schedule: Q04DX004 (ip), vehicle: saline with Tween-80.
Where [7] appears, read: dose: 100.0 mg/kg/injection, schedule: Q04DX004 (ip), vehicle: saline with Tween-80.
Where [8] appears, read: dose: 200.0 mg/kg/injection, schedule: Q04DX004 (ip), vehicle: saline with Tween-80.
The mark [9] stands for this setting: dose: 400.0 mg/kg/injection, schedule: Q04DX004 (ip), vehicle: saline with Tween-80.
The mark [10] stands for this setting: dose: 800.0 mg/kg/injection, schedule: Q04DX004 (ip), vehicle: saline with Tween-80.
Where [11] appears, read: dose: 50.0 mg/kg/injection, schedule: Q04DX004 (ip), vehicle: saline.
Setting [12] is: dose: 50.0 mg/kg/injection, schedule: Q04DX004 (ip), vehicle: suspension in saline.
[13] abbreviates: dose: 100.0 mg/kg/injection, schedule: Q04DX004 (ip), vehicle: suspension in saline.
Setting [14] is: dose: 200.0 mg/kg/injection, schedule: Q04DX004 (ip), vehicle: saline.
[15] abbreviates: dose: 200.0 mg/kg/injection, schedule: Q04DX004 (ip), vehicle: suspension in saline.
Where [16] appears, read: dose: 400.0 mg/kg/injection, schedule: Q04DX004 (ip), vehicle: suspension in saline.
Setting [17] is: dose: 100.0 mg/kg/injection, schedule: Q04DX004 (ip), vehicle: saline.

“And” between values parts separate entries of the source, which are not always exact repeats. Equal entries are not always repeated. Inconclusive results and toxic doses are left out.

The results in this text go back to PubChem BioAssay AID292 (DTP/NCI, 2004).

For `O=S1(=O)C(c2cccc(F)c2)=C(O)c2cc3ccccc3nc21`, the T/C runs as follows: (dose: 26.57 mg/kg/injection, schedule: Q04DX004 (ip), vehicle: saline with Tween-80) 100 % of control; (dose: 53.13 mg/kg/injection, schedule: Q04DX004 (ip), vehicle: saline with Tween-80) 92 % of control; (dose: 106.25 mg/kg/injection, schedule: Q04DX004 (ip), vehicle: saline with Tween-80) 96 % of control; (dose: 212.5 mg/kg/injection, schedule: Q04DX004 (ip), vehicle: saline with Tween-80) 92 % of control.

With `O=C(NNC(=O)c1cccc(C(=O)NNC(=O)c2ccc(Cl)c(Cl)c2)n1)c1ccc(Cl)c(Cl)c1`, the T/C is 102 % of control under setting [1] and 96 % of control under setting [2].

Take `C[n+]1c2cc(N)ccc2cc2ccc(N)cc21`: the T/C is, setting by setting: (dose: 1.5 mg/kg/injection, schedule: Q04DX004 (ip), vehicle: saline) 101 % of control; (dose: 3.0 mg/kg/injection, schedule: Q04DX004 (ip), vehicle: saline) 94 % of control; (dose: 6.0 mg/kg/injection, schedule: Q04DX004 (ip), vehicle: saline) 106 % of control and 118 % of control and 120 % of control; (dose: 12.0 mg/kg/injection, schedule: Q04DX004 (ip), vehicle: saline) 116 % of control and 123 % of control; (dose: 24.0 mg/kg/injection, schedule: Q04DX004 (ip), vehicle: saline) 112 % of control.

Take `Cc1nc2ccccc2c2nnc(SCC(=O)N(Cc3ccccc3)c3ccccc3)n12`: the T/C is 98 % of control under setting [1]; 115 % of control under setting [2]; 114 % of control under setting [3]; 104 % of control under setting [4]; 112 % of control under setting [5].

Regarding `CC1=C(/C=C/C(C)=C/C=C/C(C)=C/C(=O)Nc2ccc(O)cc2)C(C)(C)CCC1`, the T/C (dose: 25.0 mg/kg/injection, schedule: Q04DX004 (ip), vehicle: saline with Tween-80) is 97 % of control; the T/C under setting [6] was 96 % of control; the T/C under setting [7] was 105 % of control; the T/C under setting [8] was 95 % of control; the T/C under setting [9] is 97 % of control.

Consider `CCOC(=O)CC1(C)SCCN1C(=O)OCC` (centres undefined), for which the T/C is 114 % of control under setting [6]; 114 % of control under setting [7]; 122 % of control under setting [8]; 103 % of control under setting [9]; 98 % of control under setting [10].

In the case of `C1OC1CO[C@@H]1CO[C@H]2[C@@H]1OC[C@H]2OCC1CO1` (some centres undefined), the T/C was 119 % of control under setting [11]; 119 % of control under setting [12]; 150 % of control under setting [13]; 186 % of control under setting [14]; 215 % of control under setting [15]; 183 % of control (dose: 400.0 mg/kg/injection, schedule: Q04DX004 (ip), vehicle: saline). The T/C under setting [16] was 239 % of control.

`C[C@@]1(CO)[C@H](O)CC[C@@]2(C)[C@H]1CC[C@H]1C[C@@H]3C[C@@]12CC[C@@]3(O)COC(=O)CN`: the T/C runs as follows: (dose: 7.2 mg/kg/injection, schedule: Q03HX027 (ip), vehicle: saline + alcohol) 116 % of control; (dose: 10.0 mg/kg/injection, schedule: Q03HX027 (ip), vehicle: saline + alcohol) 121 % of control; (dose: 12.0 mg/kg/injection, schedule: Q03HX027 (ip), vehicle: saline + alcohol) 116 % of control; (dose: 18.8 mg/kg/injection, schedule: Q04DX004 (ip), vehicle: saline + alcohol) 109 % of control; (dose: 20.0 mg/kg/injection, schedule: Q03HX027 (ip), vehicle: saline + alcohol) 157 % of control; (dose: 37.5 mg/kg/injection, schedule: Q04DX004 (ip), vehicle: saline + alcohol) 104 % of control. The T/C is 156 % of control (dose: 55.6 mg/kg/injection, schedule: Q03HX027 (ip), vehicle: saline + alcohol); 102 % of control (dose: 75.0 mg/kg/injection, schedule: Q04DX004 (ip), vehicle: saline + alcohol); 110 % of control (dose: 120.0 mg/kg/injection, schedule: Q01DX009 (ip), vehicle: saline + alcohol).

For the compound `O=C1CNC(=O)N1CN1CCOCC1`, the T/C under setting [2] is 110 % of control; the T/C under setting [3] was 106 % of control; the T/C under setting [4] was 108 % of control; the T/C under setting [5] was 115 % of control; the T/C (dose: 800.0 mg/kg/injection, schedule: Q04DX004 (ip), vehicle: Klucel (hydroxypropylcellulose) (HPC)) was 106 % of control.

Consider `Nc1cc2c(cc1Br)-c1c(C(=O)O)cccc1C2O` (centres undefined), for which the T/C by setting is: under setting [6], 96 % of control; (dose: 50.0 mg/kg/injection, schedule: Q04DX004 (ip), vehicle: sodium bicarbonate) 94 % of control; under setting [7], 97 % of control; (dose: 100.0 mg/kg/injection, schedule: Q04DX004 (ip), vehicle: sodium bicarbonate) 100 % of control; under setting [8], 101 % of control; (dose: 200.0 mg/kg/injection, schedule: Q04DX004 (ip), vehicle: sodium bicarbonate) 109 % of control. For the same compound, the T/C under setting [9] was 109 % of control; the T/C (dose: 400.0 mg/kg/injection, schedule: Q04DX004 (ip), vehicle: sodium bicarbonate) was 107 % of control; the T/C (dose: 683.0 mg/kg/injection, schedule: Q04DX004 (ip), vehicle: saline with Tween-80) was 103 % of control; the T/C (dose: 800.0 mg/kg/injection, schedule: Q04DX004 (ip), vehicle: sodium bicarbonate) is 118 % of control.

Take `Cn1nnc2c(C(N)=O)ncn2c1=O`: the T/C is 156 % of control under setting [17] and 170 % of control under setting [14].

With `Clc1ccccc1C(Nc1cnccn1)Nc1cnccn1`, the T/C is 105 % of control and 112 % of control under setting [6]; 105 % of control under setting [7]; 103 % of control and 109 % of control under setting [8]; 110 % of control and 114 % of control under setting [9]; 100 % of control under setting [10].

Take `CCC(CC)COC(=O)c1ccccc1C(=O)OCC(CC)CC`: the T/C runs as follows: (dose: 75.0 mg/kg/injection, schedule: Q04DX004 (ip), vehicle: saline with Tween-80) 102 % of control; (dose: 150.0 mg/kg/injection, schedule: Q04DX004 (ip), vehicle: saline with Tween-80) 102 % of control; (dose: 300.0 mg/kg/injection, schedule: Q04DX004 (ip), vehicle: saline with Tween-80) 104 % of control; (dose: 600.0 mg/kg/injection, schedule: Q04DX004 (ip), vehicle: saline with Tween-80) 106 % of control; (dose: 1200.0 mg/kg/injection, schedule: Q04DX004 (ip), vehicle: saline with Tween-80) 114 % of control.

Regarding `NC(=S)N/N=C/c1ncccc1O`, the T/C was 103 % of control under setting [12], 101 % of control under setting [13], 101 % of control under setting [15] and 102 % of control under setting [16].

Turning to `Cn1c(=S)[nH]n(CCOc2ccccc2)c1=S`, the T/C by setting is: (dose: 31.25 mg/kg/injection, schedule: Q04DX004 (ip), vehicle: saline with Tween-80) 105 % of control; (dose: 62.5 mg/kg/injection, schedule: Q04DX004 (ip), vehicle: saline with Tween-80) 99 % of control; (dose: 125.0 mg/kg/injection, schedule: Q04DX004 (ip), vehicle: saline with Tween-80) 101 % of control; (dose: 250.0 mg/kg/injection, schedule: Q04DX004 (ip), vehicle: saline with Tween-80) 100 % of control.

Take `CN(C)c1ccc2c(Nc3ccc(NS(C)(=O)=O)cc3)c3ccc(N(C)C)cc3nc2c1`: the T/C runs as follows: (dose: 21.6 mg/kg/injection, schedule: Q04DX004 (ip), vehicle: Klucel (hydroxypropylcellulose) (HPC)) 116 % of control; under setting [2], 151 % of control; under setting [3], 159 % of control; (dose: 166.7 mg/kg/injection, schedule: Q04DX004 (ip), vehicle: Klucel (hydroxypropylcellulose) (HPC)) 172 % of control.

`CC(C)c1ccc(C2NC(=S)NC(=O)C2C#N)cc1` (centres undefined): the T/C reads like this: under setting [11], 100 % of control; under setting [17], 97 % of control; under setting [14], 88 % of control.

`N#CC1C(=O)NC(=S)NC1c1ccc(C2CC(=O)NC(=S)N2)cc1` (centres undefined): the T/C under setting [6] was 93 % of control; the T/C under setting [7] is 106 % of control; the T/C under setting [8] is 94 % of control; the T/C under setting [9] is 90 % of control; the T/C under setting [10] is 92 % of control.
